Measurements: US9636317B2, “Compositions and methods of use of phorbol esters” (priority 2007, dated 2017)

Assays:
primary AML = conditions: pharmacological interruption of ERK signaling; cited from earlier work
[1] = most polar organic solvents and water; cited from earlier work
HIV = conditions: cited from earlier work
primary AML cells = assay: Primary AML cultures ex vivo: cell viability, apoptosis assays and Western analysis of ERK; assay type: cell-based, human; conditions: primary AML samples
Excerpt: In addition to protein kinase C and ERK activation, TPA is a known inducer of NF-κB, a pro-survival transcription factor often constitutively active in AML blasts and leukemic stem cells.

COc1cccc(-c2cc(=O)c3ccccc3o2)c1N [PD98059]
primary AML survival (primary AML): decreased primary AML survival

O=C(NOCC1CC1)c1ccc(F)c(F)c1Nc1ccc(I)cc1Cl [PD 184352]
primary AML survival (primary AML): decreased primary AML survival

CC1=C[C@H]2[C@@]3(O)[C@H](C)[C@@H](O)[C@]4(O)[C@H]([C@@H]3C=C(CO)C[C@]2(O)C1=O)C4(C)C [Phorbol]
solubility [1]: well soluble in most polar organic solvents and in water

CC(=O)O[C@@]12C[C@@H](C)[C@@]3(O)[C@@H](C=C(CO)C[C@]4(O)C(=O)C(C)=C[C@@H]34)[C@@H]1C2(C)C [Prostratin, 12-deoxyphorbol 13-acetate]
HIV induced cell killing and viral replication (HIV): some effectiveness for inhibiting HIV induced cell killing and viral replication | effect on chronically-infected cell lines (HIV): little or no effect on chronically-infected cell lines | viral expression in latently-infected cell lines (HIV): activated viral expression in latently-infected cell lines

N#CC(=C(/N)Sc1ccccc1N)/C(C#N)=C(\N)Sc1ccccc1N [U0126]
primary AML survival (primary AML): decreased primary AML survival

C[C@@H]1C[C@H]2[C@@H]3CCC4=CC(=O)C=C[C@]4(C)[C@@]3(F)[C@@H](O)C[C@]2(C)[C@@]1(O)C(=O)CO [dexamethasone, reference compound]
effect on TPA cytotoxicity (primary AML cells): enhance TPA cytotoxicity
